Read-outs that look alike come from different tables or passages of the source.
Legend:
[1] = target: T1, Bcl-2 protein (Homo sapiens, UniProt P10415, DELINS35-91DVEENRTEAPEGTESE, form not given); assay: Bcl-2 binding affinity, fluorescence polarization with fluorescein-labeled BAX peptide; settings: Wang's equation, read-out: Target Binding Affinity Ki (Bcl-2)
T1 construct: fused on or other part: A short piece of the Bcl-xL (Q07817) loop replaces Bcl-2 loop residues 35-91; The C-terminal membrane anchor is absent
T1 sequence (P10415 with tags, fused parts or gaps with the stated changes): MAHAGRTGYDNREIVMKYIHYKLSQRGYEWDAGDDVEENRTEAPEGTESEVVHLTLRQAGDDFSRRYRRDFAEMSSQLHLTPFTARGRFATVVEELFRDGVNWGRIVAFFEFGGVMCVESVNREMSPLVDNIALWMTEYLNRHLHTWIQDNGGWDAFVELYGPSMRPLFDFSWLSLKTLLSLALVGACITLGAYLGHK

[2] = target: Bcl-XL protein (Homo sapiens, UniProt Q07817); assay: Bcl-XL binding affinity, fluorescence polarization with fluorescein-labeled BAD peptide; settings: Wang's equation, read-out: Target Binding Affinity Ki (Bcl-XL)
Chain of Bcl-XL protein (Q07817 with tags, fused parts or gaps DEL45-84): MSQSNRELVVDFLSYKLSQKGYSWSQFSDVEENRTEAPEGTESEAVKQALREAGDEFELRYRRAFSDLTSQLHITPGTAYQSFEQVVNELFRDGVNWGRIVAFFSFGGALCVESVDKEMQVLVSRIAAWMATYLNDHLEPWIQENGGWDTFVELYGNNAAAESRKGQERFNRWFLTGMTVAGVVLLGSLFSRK
Description: A mixture comprising 125 μL per well of assay buffer (20 mM phosphate buffer (pH 7.4), 1 mM EDTA, 50 mM NaCl, 0.05% PF-68), 6 nM of Bcl-XL protein (prepared as described in Science 1997, 275, 983-986), 1 nM fluorescein-labeled BAD peptide (prepared in-house) and the DMSO solution of the compound was shaken for 2 minutes and placed in a LJL Analyst (LJL Bio Systems, CA). A negative control (DMSO, 15 nM BAD peptide, assay buffer) and a positive control (DMSO, 1 nM BAD peptide, 6 nM Bcl-XL, assay buffer) were used to determine the range of the assay. Polarization was measured at room temperature using a continuous Fluorescein lamp (excitation 485 nm, emission 530 nm). Percentage of inhibition was determined by (1-((mP value of well-negative control)/range))×100%.

[3] = test system: NCI-H146 human small cell lung carcinoma cells; assay: Cellular efficacy in human tumor cell line (MTS viability assay); type: cell-based; settings: NCI-H146, 10% human serum, 48 hours
Description: NCI-H146 (ATCC, Manassas, Va.) human small cell lung carcinoma cells were plated 50,000 cells per well in 96-well tissue culture plates in a total volume of 100 μL tissue culture medium supplemented with 10% human serum (Invitrogen, Carlsbad, Calif.) instead of fetal bovine serum and treated with a 2-fold serial dilution of the compounds of interest from 10 μM to 0.020 μM. Each concentration was tested in duplicate at least 3 separate times. The number of viable cells following 48 hours of compound treatment was determined using the CellTiter 96® AQueous non-radioactive cell proliferation MTS assay according to manufacturer's recommendations (Promega Corp., Madison, Wis.).

[4] = Pharmacokinetic evaluation in rat; type: in vivo; settings: male, Sprague-Dawley, plasma; for AUC / Cmax: 5 mg/kg, oral; for AUC: Table 3, read-out: Pharmacokinetic area under the plasma concentration Curve (rat) AUC; for Cmax: Table 3, read-out: Pharmacokinetic peak plasma concentration (rat) Cmax; for AUC(0-inf): single 5 mg/kg oral dose, Table 1, read-out: Pharmacokinetic area under the plasma concentration Curve (rat) AUC0-∞
Description: The pharmacokinetic behavior of compounds of this disclosure was determined following a single 2 mg/kg intravenous or 5 mg/kg oral dose in male Sprague-Dawley derived rats (n=3 per group). The compounds were prepared as 2 mg/mL solution in a 10% DMSO in PEG-400 formulation for both oral and intravenous administration. The 1 mL/kg intravenous dose was administered as a slow bolus (about 1-2 minutes) in the jugular vein of a rat under light ether anesthetic. The oral dose was administered by gavage. Serial blood samples were obtained from a tail vein of each rat prior 0.1 (IV only), 0.25, 0.5, 1, 1.5, 2, 3, 4, 6, 8 and 24 hours after dosing. The heparinized samples were thoroughly mixed and placed in an ice bath. Plasma was separated by centrifugation and stored frozen prior to analysis.
The compounds of interest were separated from the plasma using protein precipitation with acetonitrile. A plasma (100-200 μL, sample or spiked standard) aliquot was combined with 50 μL of internal standard (structurally related analog prepared in acetonitrile) and 1 ml acetonitrile in a 96-well polypropylene deep well plate. The plates were vortexed for 30 seconds followed by centrifugation (3500 rpm×15 minutes, 4° C.). In an automated manner, the supernatant was transferred to a clean 96-well plate. The samples were evaporated to near dryness on a Micro-Vap™ under a stream of dry nitrogen over low heat (˜37° C.). The samples were reconstituted vortexing with 0.2 mL 5% DMSO in acetonitrile. A 0.1-0.2 ml aliquot of acetonitrile: 0.1% trifluoroacetic acid (20:80, by volume) was added to each well, followed by an additional 30 second vortexing. The plates were centrifuged (3500 rpm×15 minutes, 4° C.) prior to HPLC-MS/MS analysis. Samples were analyzed simultaneously with spiked plasma standards. All samples from each study were analyzed as a single batch on the LC-MS/MS.
The compounds of interest and the internal standard were separated from each other and co-extracted contaminants on a 50×3 mm Keystone Betasil CN 5 μm column with an acetonitrile: 0.1% trifluoroacetic acid mobile phase (50:50, by volume) at a flow rate of 0.7 ml/min. Analysis was performed on a Sciex API 300™ Biomolecular Mass Analyzer using a heated nebulizer interface. Peak areas of the title compounds and internal standards were determined using the Sciex MacQuan™ software. Calibration curves were derived from peak area ratio (parent drug/internal standard) of the spiked rat plasma standards using least squares linear regression of the ratio versus the theoretical concentration. The methods were generally linear over the range of the standard curve (correlation coefficients >0.99) with an estimated quantitation limit of 0.01 μg/mL. The plasma concentration data for each animal were submitted to multi-exponential curve fitting using WinNonlin. The area under the plasma concentration-time curve from 0 to t hours (time of the last measurable plasma concentration) after dosing (AUC0-t) was calculated using the linear trapezoidal rule for the plasma concentration-time profiles. The residual area extrapolated to infinity, determined as the final measured plasma concentration (Ct) divided by the terminal elimination rate constant (β), was added to AUC0-t to produce the total area under the curve (AUC0-∞). Ki values shown in the tables below were determined using Wang's equation (Wang Z X., An Exact Mathematical Expression For Describing Competitive Binding Of Two Different Ligands To A Protein Molecule. FEBS Lett. 1995; 360:111-4)).

[5] = Table 1, read-out: NCI-H146 Cellular Efficacy EC50
[6] = Table 3, read-out: NCI-H146 Cellular Efficacy H146 EC50

SMILES	Ki [1] [nM]	Ki [2] [nM]	EC50 [3, 5] [nM]	EC50 [3, 6] [nM]	AUC [4] [µM·h]	Cmax [4] [nM]	AUC(0-inf) [4] [µM·h]
CN(C)CC[C@H](CSc1ccccc1)Nc1ccc(S(=O)(=O)NC(=O)c2ccc(N3CCN(CC4=C(c5ccc(Cl)cc5)CCCC4)CC3)cc2)cc1S(=O)(=O)C(F)(F)Cl [Example 18, 3-((chloro(difluoro)methyl)sulfonyl)-N-(4-(4-((2-(4-chlorophenyl)cyclohex-1-en-1-yl)methyl)piperazin-1-yl)benzoyl)-4-(((1R)-3-(dimethylamino)-1-((phenylsulfanyl)methyl)propyl)amino)benzenesulfonamide]	≤ 1	≤ 1	15.4	15	0.609	59	0.61
CC1(C)CCC(c2ccc(Cl)cc2)=C(CN2CCN(c3ccc(C(=O)NS(=O)(=O)c4ccc(N[C@H](CCN5CCOCC5)CSc5ccccc5)c(S(=O)(=O)C(F)(F)Cl)c4)cc3)CC2)C1 [Example 19, 3-((chloro(difluoro)methyl)sulfonyl)-N-(4-(4-((2-(4-chlorophenyl)-5,5-dimethylcyclohex-1-en-1-yl)methyl)piperazin-1-yl)benzoyl)-4-(((1R)-3-(morpholin-4-yl)-1-((phenylsulfanyl)methyl)propyl)amino)benzenesulfonamide]	≤ 1	≤ 1	15.8	–	–	–	7.12
CN(C)CC[C@H](CSc1ccccc1)Nc1ccc(S(=O)(=O)NC(=O)c2ccc(N3CCN(CC4=C(c5ccc(Cl)cc5)CCC(C)(C)C4)CC3)cc2)cc1S(=O)(=O)C(F)(F)F [Example 20, N-(4-(4-((2-(4-chlorophenyl)-5,5-dimethyl-1-cyclohex-1-en-1-yl)methyl)piperazin-1-yl)benzoyl)-4-(((1R)-3-(dimethylamino)-1-((phenylsulfanyl)methyl)propyl)amino)-3-((trifluoromethyl)sulfonyl)benzenesulfonamide]	≤ 1	≤ 1	27.7	–	–	–	3.11
O=C(NS(=O)(=O)c1ccc(N[C@H](CCN2CCOCC2)CSc2ccccc2)c(S(=O)(=O)C(F)(F)F)c1)c1ccc(N2CCN(CC3=C(c4ccc(Cl)cc4)CCOC3)CC2)cc1 [Example 21, N-(4-(4-((4-(4-chlorophenyl)-5,6-dihydro-2H-pyran-3-yl)methyl)piperazin-1-yl)benzoyl)-4-(((1R)-3-(morpholin-4-yl)-1-((phenylsulfanyl)methyl)propyl)amino)-3-((trifluoromethyl)sulfonyl)benzenesulfonamide]	≤ 1	≤ 1	64.3	–	–	–	1.81
CC(C)N(C)CC[C@H](CSc1ccccc1)Nc1ccc(S(=O)(=O)NC(=O)c2ccc(N3CCN(CC4=C(c5ccc(Cl)cc5)CC(C)(C)CC4)CC3)cc2)cc1S(=O)(=O)C(F)(F)Cl [Example 22, 3-((chloro(difluoro)methyl)sulfonyl)-N-(4-(4-((2-(4-chlorophenyl)-4,4-dimethylcyclohex-1-en-1-yl)methyl)piperazin-1-yl)benzoyl)-4-(((1R)-3-(isopropyl(methyl)amino)-1-((phenylsulfanyl)methyl)propyl)amino)benzenesulfonamide]	≤ 1	≤ 1	38.8	–	–	–	4.08
CC(C)N(C)CC[C@H](CSc1ccccc1)Nc1ccc(S(=O)(=O)NC(=O)c2ccc(N3CCN(CC4=C(c5ccc(Cl)cc5)CCC(C)(C)C4)CC3)cc2)cc1S(=O)(=O)C(F)(F)Cl [Example 23, 3-((chloro(difluoro)methyl)sulfonyl)-N-(4-(4-((2-(4-chlorophenyl)-5,5-dimethylcyclohex-1-en-1-yl)methyl)piperazin-1-yl)benzoyl)-4-(((1R)-3-(isopropyl(methyl)amino)-1-((phenylsulfanyl)methyl)propyl)amino)benzenesulfonamide]	≤ 1	≤ 1	52.8	–	–	–	3.54
CC1(C)CCC(CN2CCN(c3ccc(C(=O)NS(=O)(=O)c4ccc(N[C@H](CCN5CCOCC5)CSc5ccccc5)c(S(=O)(=O)C(F)(F)F)c4)cc3)CC2)=C(c2ccc(Cl)cc2)C1 [Example 24, N-(4-(4-((2-(4-chlorophenyl)-4,4-dimethylcyclohex-1-en-1-yl)methyl)piperazin-1-yl)benzoyl)-4-(((1R)-3-(morpholin-4-yl)-1-((phenylsulfanyl)methyl)propyl)amino)-3-((trifluoromethyl)sulfonyl)benzenesulfonamide]	≤ 1	≤ 1	44.3	–	–	–	8.04
CC1(C)CCC(CN2CCN(c3ccc(C(=O)NS(=O)(=O)c4ccc(N[C@H](CCN5C[C@@H]6C[C@H]5CO6)CSc5ccccc5)c(S(=O)(=O)C(F)(F)Cl)c4)cc3)CC2)=C(c2ccc(Cl)cc2)C1 [Example 25, 3-((chloro(difluoro)methyl)sulfonyl)-N-(4-(4-((2-(4-chlorophenyl)-4,4-dimethylcyclohex-1-en-1-yl)methyl)piperazin-1-yl)benzoyl)-4-(((1R)-3-((1S,4S)-2-oxa-5-azabicyclo[2.2.1]hept-5-yl)-1-((phenylsulfanyl)methyl)propyl)amino)benzenesulfonamide]	≤ 1	≤ 1	16.4	–	–	–	1.67
CN(C)CC[C@H](CSc1ccccc1)Nc1ccc(S(=O)(=O)NC(=O)c2ccc(N3CCN(CC4=C(c5ccc(Cl)cc5)CCCC4)CC3)cc2)cc1S(=O)(=O)C(F)(F)F [Example 26, N-(4-(4-((2-(4-chlorophenyl)cyclohex-1-en-1-yl)methyl)piperazin-1-yl)benzoyl)-4-(((1R)-3-(dimethylamino)-1-((phenylsulfanyl)methyl)propyl)amino)-3-((trifluoromethyl)sulfonyl)benzenesulfonamide]	≤ 1	≤ 1	24.3	24	0.803	97	0.8
O=C(NS(=O)(=O)c1ccc(N[C@H](CCN2CCCC2)CSc2ccccc2)c(S(=O)(=O)C(F)(F)F)c1)c1ccc(N2CCN(CC3=C(c4ccc(Cl)cc4)CCCC3)CC2)cc1 [Example 27, N-(4-(4-((2-(4-chlorophenyl)cyclohex-1-en-1-yl)methyl)piperazin-1-yl)benzoyl)-4-(((1R)-1-((phenylsulfanyl)methyl)-3-(pyrrolidin-1-yl)propyl)amino)-3-((trifluoromethyl)sulfonyl)benzenesulfonamide]	≤ 1	≤ 1	18.5	–	–	–	2.08

From patent US8624027B2, “Combination therapy for treating cancer and diagnostic assays for use therein” (AbbVie Inc., priority 2005, dated 2014)
